The values that follow come from US9884043B2, “RORgammaT inhibitors” (Merck Sharp & Dohme Corp., priority 2011, dated 2018).

The term IC50 denotes the point on the concentration scale where inhibition reaches its midpoint. High values mean a need for much substance, low ones inhibition by little substance.

The target in the assay is T1, HIS-tagged RORγ-LBD (Homo sapiens, UniProt P51449).
T1 construct: HIS-tagged RORγ-LBD was recombinantly expressed in SF9 cells using a baculovirus expression system; made in house; host or cells: SF9 cells, baculovirus; crude lysate used
T1 sequence (P51449 269-508 limits assumed): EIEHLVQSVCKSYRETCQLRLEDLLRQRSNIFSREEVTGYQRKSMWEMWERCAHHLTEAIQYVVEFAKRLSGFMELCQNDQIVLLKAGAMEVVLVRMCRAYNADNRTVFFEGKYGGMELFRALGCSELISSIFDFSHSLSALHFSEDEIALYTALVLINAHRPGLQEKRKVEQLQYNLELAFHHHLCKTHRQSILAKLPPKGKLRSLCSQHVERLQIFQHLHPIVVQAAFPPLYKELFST
Nature of the assay: TR-FRET assay (Protocol B), RORγ-LBD lysate / biotinylated SRC1-2 LXXLL peptide. The assay is classed as biochemical. To be noted: unpurified RORγ-LBD lysate ~10 nM, SRC1-2 peptide 450 nM. The source says: Activation of RORgammaT activity can be measured using e.g. biochemical TR-FRET assay. In such an assay, interaction of cofactor-derived peptides with human RORgammaT-Ligand Binding Domain (LBD) can be measured.
To identify novel antagonists of RORgammaT, an assay was developed which employs the interaction of RORgammaT with its co-activator peptide SRC1_2. […] The assay was run following three slightly different protocols, i.e. Protocol A, Protocol B, and Protocol C, which are described below.
TR-Fret Assay (Protocol B)
HIS-tagged RORγ-LBD was recombinantly expressed in SF9 cells using a baculovirus expression system. The protein was not purified. Cells were lysed and the lysate was used as a source for RORγ-LBD for the assay. A 1:80 dilution of RORγ-LBD lysate in assay buffer (25 mM HEPES pH 7.0, 100 mM NaCl, 0.01% Tween, 0.1% BSA) was prepared and 5 μL was added to each well (RORγ-LBD final concentration ˜10 nM). Control wells received lysate from SF9 cells not expressing RORγ-LBD.
Compounds to be tested were diluted to 100× final test concentration in DMSO and further diluted to 4× final test concentration using assay buffer to provide the test compound mixture. An aliquot (5 μL) of the test compound mixture was added to each well.
For orientation: In TR-FRET formats the signal depends on donor and acceptor labels being close together.
Take `CC(=O)Oc1cc(-c2nn(C(=O)c3c(Cl)cccc3C(F)(F)F)c3cccc(F)c23)ccc1C(=O)O` [Example 26B, 2-acetoxy-4-(1-(2-chloro-6-(trifluoromethyl)benzoyl)-4-fluoro-1H-indazol-3-yl)benzoic acid]: the IC50 was under 50 nM. In the case of `COc1cccc(F)c1C(=O)n1nc(-c2ccc(C(=O)O)cc2)c2c(F)cccc21` [Example 24AB, 4-(4-fluoro-1-(2-fluoro-6-methoxybenzoyl)-1H-indazol-3-yl)benzoic acid] it was under 50 nM.

Consider `Cc1cc(C(=O)O)ccc1-c1nn(C(=O)c2c(Cl)cccc2C(F)(F)F)c2cccnc12` [Example 24AF, 4-(1-(2-chloro-6-(trifluoromethyl)-benzoyl)-1H-pyrazolo[4,3-b]pyridin-3-yl)-3-methylbenzoic acid], for which the IC50 is under 50 nM. In the case of `O=C(O)c1ccc(-c2nn(C(=O)c3c(Cl)cccc3C(F)(F)F)c3cc(C(=O)NCCCO)ccc23)cc1` [Example 25L, 4-(1-(2-chloro-6-(trifluoromethyl)benzoyl)-6-(3-hydroxypropyl-carbamoyl)-1H-indazol-3-yl)benzoic acid] it was under 50 nM; in that of `O=C(O)c1ccc(-c2nn(C(=O)c3c(Cl)cccc3C(F)(F)F)c3ccccc23)cc1C(F)F` [Example 28, 4-(1-(2-chloro-6-(trifluoromethyl)benzoyl)-1H-indazol-3-yl)-2-(difluoromethyl)benzoic acid], under 50 nM. Take `O=C(O)c1ccc(-c2nn(C(=O)c3c(Cl)cccc3C(F)(F)F)c3cccnc23)cc1F` [Example 24AH, 4-(1-(2-chloro-6-(trifluoromethyl)-benzoyl)-1H-pyrazolo[4,3-b]pyridin-3-yl)-2-fluorobenzoic acid]: the IC50 is under 50 nM. The same measure for `O=C(O)c1cc(F)c(-c2nn(C(=O)c3c(Cl)cccc3C(F)(F)F)c3cccc(F)c23)cc1F` [Example 24W, 4-(1-(2-chloro-6-(trifluoromethyl)-benzoyl)-4-fluoro-1H-indazol-3-yl)-2,5-difluorobenzoic acid]: under 50 nM; for `O=C(c1c(Cl)cccc1C(F)(F)F)n1nc(-c2ccc(C(O)(C(F)(F)F)C(F)(F)F)cc2)c2c(F)cccc21` [Example 24D, (2-chloro-6-(tri-fluoromethyl)-phenyl)(4-fluoro-3-(4-(1,1,1,3,3,3-hexafluoro-2-hydroxypropan-2-yl)phenyl)-1H-indazol-1-yl)methanone]: 500 to 10000 nM.

With `COc1cccc(F)c1C(=O)n1nc(-c2ccc(C(=O)O)cc2)c2ncccc21` [Example 24AM, 4-(1-(2-fluoro-6-methoxybenzoyl)-1H-pyrazolo[4,3-b]pyridin-3-yl)benzoic acid], the IC50 is under 50 nM.

For `O=C(O)c1ccc(-c2nn(C(=O)c3c(Cl)cccc3C(F)(F)F)c3cccc(F)c23)c(F)c1F` [Example 24V, 4-(1-(2-chloro-6-(trifluoromethyl)-benzoyl)-4-fluoro-1H-indazol-3-yl)-2,3-difluorobenzoic acid], the IC50 is under 50 nM. In the case of `COc1cccc(F)c1C(=O)n1nc(-c2ccc(C(=O)O)cc2F)c2ccccc21` [Example 24AT, 3-fluoro-4-(1-(2-fluoro-6-methoxybenzoyl)-1H-indazol-3-yl)benzoic acid] it was under 50 nM. The same measure for `O=C(O)c1ccc(-c2nn(C(=O)c3c(Cl)cccc3C(F)(F)F)c3cc(O)ccc23)cc1` [Example 24BA, 4-(1-(2-chloro-6-(trifluoromethyl)-benzoyl)-6-hydroxy-1H-indazol-3-yl)benzoic acid]: under 50 nM; for `O=C(O)c1ccc(-c2nn(C(=O)c3c(Cl)cccc3C(F)(F)F)c3cc(Br)cc(F)c23)cc1` [Example 24AX, 4-(6-bromo-1-(2-chloro-6-(trifluoromethyl)-benzoyl)-4-fluoro-1H-indazol-3-yl) benzoic acid]: under 50 nM; for `CN(C)C(=O)c1ccc2c(-c3ccc(C(=O)O)c(F)c3)nn(C(=O)c3c(Cl)cccc3C(F)(F)F)c2c1` [Example 25I, 4-(1-(2-chloro-6-(trifluoromethyl)benzoyl)-6-(dimethyl-carbamoyl)-1H-indazol-3-yl)-2-fluorobenzoic acid]: 50 to 500 nM. In the case of `O=C(NCCO)c1ccc2c(-c3ccc(C(=O)O)c(F)c3)nn(C(=O)c3c(Cl)cccc3C(F)(F)F)c2c1` [Example 25G, 4-(1-(2-chloro-6-(trifluoromethyl)benzoyl)-6-(2-hydroxyethyl-carbamoyl)-1H-indazol-3-yl)-2-fluorobenzoic acid] it was 50 to 500 nM; in that of `O=C(O)c1cc(F)c(-c2nn(C(=O)c3c(Cl)cccc3C(F)(F)F)c3cccnc23)cc1F` [Example 24AK, 4-(1-(2-chloro-6-(trifluoromethyl)-benzoyl)-1H-pyrazolo[4,3-b]pyridin-3-yl)-2,5-difluorobenzoic acid], under 50 nM; in that of `CN(C)C(=O)c1ccc2c(-c3ccc(C(=O)O)c(O)c3)nn(C(=O)c3c(Cl)cccc3C(F)(F)F)c2c1` [Example 26J, 4-(1-(2-chloro-6-(trifluoromethyl)benzoyl)-6-(dimethyl-carbamoyl)-1H-indazol-3-yl)-2-hydroxybenzoic acid], under 50 nM. For `CN(C)C(=O)c1ccc2c(-c3ccc(C(=O)O)cc3Cl)nn(C(=O)c3c(Cl)cccc3C(F)(F)F)c2c1` [Example 25J, 3-chloro-4-(1-(2-chloro-6-(trifluoromethyl)benzoyl)-6-(dimethyl-carbamoyl)-1H-indazol-3-yl)benzoic acid], the IC50 is under 50 nM. The same measure for `CC(O)CNC(=O)c1ccc2c(-c3ccc(C(=O)O)cc3)nn(C(=O)c3c(Cl)cccc3C(F)(F)F)c2c1` (centres unmarked) [Example 25O, 4-(1-(2-chloro-6-(trifluoromethyl)benzoyl)-6-(2-hydroxypropyl-carbamoyl)-1H-indazol-3-yl)benzoic acid]: under 50 nM; for `CN(C)C(=O)c1ccc2c(-c3ccc(C(=O)O)cc3F)nn(C(=O)c3c(Cl)cccc3C(F)(F)F)c2c1` [Example 25E, 4-(1-(2-chloro-6-(trifluoromethyl)benzoyl)-6-(dimethyl-carbamoyl)-1H-indazol-3-yl)-3-fluorobenzoic acid]: under 50 nM. `O=C(O)c1ccc(-c2nn(C(=O)c3c(Cl)cccc3C(F)(F)F)c3cc(CO)ccc23)c(F)c1` [Example 24BF, 4-(1-(2-chloro-6-(trifluoromethyl)-benzoyl)-6-(hydroxymethyl)-1H-indazol-3-yl)-3-fluorobenzoic acid] came in with a half-inhibitory concentration (IC50) of under 50 nM. The same measure for `O=C(O)c1cc(F)c(-c2nn(C(=O)c3c(Cl)cccc3C(F)(F)F)c3cccnc23)cc1Cl` [Example 24AJ, 2-chloro-4-(1-(2-chloro-6-(trifluoromethyl)-benzoyl)-1H-pyrazolo[4,3-b]pyridin-3-yl)-5-fluorobenzoic acid]: 50 to 500 nM; for `O=C(O)Cc1ccc(-c2nn(C(=O)c3c(Cl)cccc3C(F)(F)F)c3cccc(F)c23)cc1` [Example 24G, 2-(4-(1-(2-chloro-6-(trifluoromethyl)-benzoyl)-4-fluoro-1H-indazol-3-yl)phenyl)acetic acid]: 500 to 10000 nM. On to `O=C(O)c1ccc(-c2nn(C(=O)c3c(Cl)cccc3C(F)(F)F)c3cccc(C(F)(F)F)c23)cc1` [Example 24AO, 4-(1-(2-chloro-6-(trifluoromethyl)-benzoyl)-4-(trifluoromethyl)-1H-indazol-3-yl)benzoic acid], for which the IC50 is under 50 nM. On to `O=C(O)c1cc(F)c(-c2nn(C(=O)c3c(Cl)cccc3C(F)(F)F)c3cccc(F)c23)cc1Cl` [Example 24X, 2-chloro-4-(1-(2-chloro-6-(trifluoromethyl)-benzoyl)-4-fluoro-1H-indazol-3-yl)-5-fluorobenzoic acid], for which the IC50 is 50 to 500 nM.

The molecule `O=C(O)c1ccc(-c2nn(C(=O)c3c(Cl)cccc3C(F)(F)F)c3ccccc23)c(F)c1` [Example 24AR, sodium 4-(1-(2-chloro-6-(trifluoromethyl)-benzoyl)-1H-indazol-3-yl)-3-fluoro benzoate] gave an IC50 of under 50 nM. In the case of `O=C(O)c1cccc(-c2nn(C(=O)c3c(Cl)cccc3C(F)(F)F)c3cccc(F)c23)c1` [Example 24E, 3-(1-(2-chloro-6-(trifluoromethyl)-benzoyl)-4-fluoro-1H-indazol-3-yl)benzoic acid] it was 500 to 10000 nM; in that of `CC(=O)Oc1cc(-c2nn(C(=O)c3c(Cl)cccc3C(F)(F)F)c3cccnc23)ccc1C(=O)O` [Example 26I, 2-acetoxy-4-(1-(2-chloro-6-(trifluoromethyl)benzoyl)-1H-pyrazolo[4,3-b]pyridin-3-yl)benzoic acid], under 50 nM; in that of `CC(C)c1cc(-c2nn(C(=O)c3c(Cl)cccc3C(F)(F)F)c3cccc(F)c23)ccc1C(=O)O` [Example 24S, 4-(1-(2-chloro-6-(trifluoromethyl)-benzoyl)-4-fluoro-1H-indazol-3-yl)-2-isopropylbenzoic acid], 500 to 10000 nM.
